Reference: patent publication US20230144399A1, “QUINOLINE COMPOUNDS FOR THE TREATMENT AND PROPHYLAXIS OF HEPATITIS B VIRUS DISEASE” (Hoffmann-La Roche Inc., priority 2017, published 2023)

Columns and labels:
[1] = test system: HBV cccDNA (HBeAg level) in HepDES19 cells; test: Engineered HepDES19 primary screen assay (HBeAg as surrogate marker for cccDNA); format: cell-based; conditions: Hepatitis B virus, HepDES19, 120 h, read-out: IC50 (HBeAg level, HepDES19 primary screen assay)
From the text: The assay was employed to screen for novel cccDNA inhibitors. HepDES19 is a cccDNA-producing cell line. In this cell line, HBeAg in the cell culture supernatant as surrogate marker, as HBeAg production depends on cccDNA level and activity. HepDES19 is an engineered cell line which contains a 1.1 unit length HBV genome, and pgRNA transcription from the transgene is controlled by Tetracycline (Tet). In the absence of Tet, pgRNA transcription will be induced, but HBV e antigen (HBeAg) could not be produced from this pgRNA due to very short leader sequence before the HBeAg start codon and the start codon is disrupted. Only after cccDNA is formed, the missing leader sequence and start codon mutation would be restored from the 3′-terminal redundancy of pgRNA, and then HBeAg could be synthesized. Therefore, HBeAg could be used as a surrogate marker for cccDNA (Zhou, T. et al., Antiviral Res.(2006), 72(2), 116-124; Guo, H. et al., J. Virol. (2007), 81(22), 12472-12484).
HepDES19 cells were seeded at 2×10^6 cells per T150 flask and cultured with the culture medium (Dulbecco's Modified Eagle Medium: Nutrient Mixture F-12 [DMEM-F12, Gibco Cat. 11320-82], 10% Fetal Bovine Serum [FBS, Clontech Cat. 631101], 0.1 mM Non-Essential Amino Acids Solution [NEAA, Gibco Cat. 11140-050], 50 μg/mL Penicillin-Streptomycin [PS, Invitrogen Cat. 15140-163], 500 μg/mL Geneticin [G418, Invitrogen Cat. 10131-027]) containing 3 μg/mL Tet (Sigma, Cat. 87128) for 5 days. Cells were then seeded at 4×10^6 cells per T150 in the same culture medium as described above in the absence of Tet for 8 days. Cells were then harvested and frozen at density of 2×10^6 cells per mL. For compound testing, the frozen cells were thawed and seeded into 96-well plates at a density of 6×10^4 cells per well. At 24 hrs after seeding, half log serial dilutions of compounds made with Dimethyl sulfoxide (DMSO, Sigma, Cat. D2650) were further diluted with the same culture medium as described above before they were added to the cells to reach desired final compound concentrations and 1% DMSO concentration. Plates were then incubated at 37° C. for another 5 days before measurement of HBeAg level and cell viability. Intracellular HBeAg level were measured with enzyme-linked immunosorbent assay (ELISA) kit (Shanghai Kehua Diagnostic Medical Products Co., Ltd). Cell viability was assessed using Cell Counting Kit-8 (Donjindo, Cat. CK04-20). IC50 values were derived from the dose-response curve using 4 parameter logistic curve fit method.
The compounds of the present invention were tested for their capacity to inhibit extracellular HBeAg level as described herein.

[2] = test system: HBV (extracellular HBsAg) in HBV-infected PHH; test: Cryopreserved primary human hepatocytes (PHH) HBV infection assay; format: cell-based; conditions: Hepatitis B virus, Hepatocyte, 216 h, 9 days post-compound treatment, extracellular HBsAg by CLIA
Procedure: This assay is used to confirm the anti-HBV effect of the compounds in HBV PHH infection assay. Cryopreserved PHH (BioreclamationIVT, Lot YJM) was thawed at 37° C. and gently transferred into pre-warmed InVitroGRO HT medium (BioreclamationIVT, Cat. S03317). The mixture was centrifuged at 70 relative centrifugal force (RCF) for 3 minutes at RT, and the supernatant was discarded. Pre-warmed InVitroGRO CP medium (BioreclamationIVT, Cat #S03316) was added to the cell pellet to gently re-suspend cells. The cells were seeded at the density of 5.8×10^4 cells per well to collagen I coated 96-well plate (Gibco, Cat. A1142803) with the InVitroGRO CP medium. All plates were incubated at 37° C. with 5% CO2 and 85% humidity.
At 20 hours after plating, the medium was changed to PHH culture medium (Dulbecco's Modified Eagle Medium (DMEM)/F12 (1:1) (Gibco, Cat. 11320-033), 10% fetal bovine serum (Gibco Cat. 10099141), 100 U/mL penicillin, 100 μg/mL streptomycin (Gibco, Cat. 151401-122), 5 ng/mL human epidermal growth factor (Invitrogen Cat. PHG0311L), 20 ng/mL dexamethasone (Sigma, Cat. D4902) and 250 ng/mL human recombinant insulin (Gibco, Cat. 12585-014)). And the cells were incubated at 37° C. with 5% CO2 and 85% humidity for 4 hours. The medium was then changed to pre-warmed PHH culture medium containing 4% polyethylene glycol (PEG) MW8000 (Sigma, Cat. P1458-50ML) and 1% DMSO (Sigma, Cat. D2650). 5.8×10^6 genomic equivalents of HBV were added into the medium.
At 24 hours post-infection, the cells were gently washed with PBS and refreshed with PHH culture medium supplemented with 1% DMSO, and 0.25 mg/mL Matrix gel (Corning, Cat. 356237) at 200 μL per well. All plates were immediately placed in at 37° C. CO2 incubator. 24 hours later, serial dilutions of compounds made with DMSO were further diluted with the same culture medium (PHH culture medium supplemented with 1% DMSO and 0.25 mg/mL Matrix gel as described above) before they were added to the cells to reach desired final compound concentrations and 1% DMSO concentration. The medium containing the compounds were refreshed every three days.
At 9 days post-compound treatment, extracellular HBsAg level were measured with Chemiluminescence Immuno Assay (CLIA) kit (Autobio, HBsAg Quantitative CLIA). Extracellular HBV DNA was extracted by MagNA Pure 96 system (Roche) and then determined by quantitative PCR with the following primers and probe: […]
HBsAg IC50 and HBV DNA IC50 values were derived from the dose-response curve using 4 parameter logistic curve fit method.

| Compound | IC50 [1] | IC50 [2] |
| --- | --- | --- |
| O=C(O)[C@H]1C[C@@H](OCCOc2ccc(-c3ccc4cccc(Cl)c4n3)cc2)C1 [Example 1, Cis-3-[2-[4-(8-chloro-2-quinolyl)phenoxy]ethoxy]cyclobutanecarboxylic acid] | 0.008 µM | 0.015 µM |
| O=C(O)COCCOc1ccc(-c2ccc3cccc(Cl)c3n2)cc1 [Example 2, 2-[2-[4-(8-chloro-2-quinolyl)phenoxy]ethoxy]acetic acid] | 0.233 µM | 0.97 µM |
| COc1ccc(-c2ccc3cccc(Cl)c3n2)cc1C(F)(F)F [Example 3, 8-chloro-2-[4-methoxy-3-(trifluoromethyl)phenyl]quinoline] | 0.141 µM | 11.3 µM |
| OCCOc1ccc(-c2ccc3cccc(Cl)c3n2)cc1C(F)(F)F [Example 4, 2-[4-(8-chloro-2-quinolyl)-2-(trifluoromethyl)phenoxy]ethanol] | 2.12 µM | 6.77 µM |
| O=C(O)[C@H]1C[C@@H](OCCOc2ccc(-c3ccc4cccc(Cl)c4n3)cc2C(F)(F)F)C1 [Example 5, Cis-3-[2-[4-(8-chloro-2-quinolyl)-2-(trifluoromethyl)phenoxy]ethoxy]cyclobutanecarboxylic acid] | 3.91 µM | 2.95 µM |
| O=C(O)COCCOc1ccc(-c2ccc3cccc(Cl)c3n2)cc1C(F)(F)F [Example 6, 2-[2-[4-(8-chloro-2-quinolyl)-2-(trifluoromethyl)phenoxy]ethoxy]acetic acid] | 0.537 µM | 8.35 µM |
| N#Cc1cc(OCCO[C@H]2C[C@@H](C(=O)O)C2)ccc1-c1ccc2cccc(Cl)c2n1 [Example 7, Cis-3-[2-[4-(8-chloro-2-quinolyl)-3-cyano-phenoxy]ethoxy]cyclobutanecarboxylic acid] | 18.4 µM | – |
| OCCOc1ccc(-c2ccc3ccc(C(F)(F)F)cc3n2)cc1 [Example 8, 2-[4-[7-(trifluoromethyl)-2-quinolyl]phenoxy]ethanol] | 18.5 µM | – |
| COC(=O)[C@H]1C[C@@H](OCCOc2ccc(-c3ccc4ccc(C(F)(F)F)cc4n3)cc2)C1 [Example 9, Cis-methyl 3-[2-[4-[7-(trifluoromethyl)-2-quinolyl]phenoxy]ethoxy]cyclobutanecarboxylate] | 17.8 µM | – |
| O=C(O)c1cc(-c2cccc(Br)c2)nc2cc(C(F)(F)F)ccc12 [Example 10, 2-(3-bromophenyl)-7-(trifluoromethyl)quinoline-4-carboxylic acid] | 19.5 µM | – |
| Cc1cc(-c2cccc(Br)c2)nc2cc(C(F)(F)F)ccc12 [Example 11, 2-(3-bromophenyl)-4-methyl-7-(trifluoromethyl)quinoline] | 2.07 µM | 1.66 µM |
| O=C(O)C1CC(OCCOc2ccc(-c3cc(C(F)(F)F)c4cccc(Cl)c4n3)cc2)C1 (stereo not shown) [Example 12, 3-[2-[4-[8-chloro-4-(trifluoromethyl)-2-quinolyl]phenoxy]ethoxy]cyclobutanecarboxylic acid] | 0.515 µM | 3.31 µM |
| O=C(O)COCCOc1ccc(-c2cc(C(F)(F)F)c3cccc(Cl)c3n2)cc1 [Example 13, 2-[2-[4-[8-chloro-4-(trifluoromethyl)-2-quinolyl]phenoxy]ethoxy]acetic acid] | 1.67 µM | 5.5 µM |
| COc1cc(-c2ccc(OCc3cccc(C(=O)O)c3)cc2)nc2c(Cl)cccc12 [Example 14, 3-[[4-(8-chloro-4-methoxy-2-quinolyl)phenoxy]methyl]benzoic acid] | 1.85 µM | – |
| COc1cc2cccc(Cl)c2nc1-c1ccc(OCCO[C@H]2C[C@@H](C(=O)O)C2)cc1 [Example 15, Cis-3-[2-[4-(8-chloro-3-methoxy-2-quinolyl)phenoxy]ethoxy]cyclobutanecarboxylic acid] | 2.53 µM | – |
| O=C(O)C1CC(OCCOc2cc3c(Cl)ccc(Cl)c3nc2-c2ccc(O)cc2)C1 (stereo not shown) [Example 16, 3-[2-[[5,8-dichloro-2-(4-hydroxyphenyl)-3-quinolyl]oxy]ethoxy]cyclobutanecarboxlic acid] | 3.62 µM | – |
